Data published in patent US20130143929A1, “FUNGICIDAL IMIDAZOLES” (EI DU PONT DE NEMOURS AND COMPANY, priority 2010, published 2013).
Marks after values point to notes of the source that are not given here.

Experiments:
Assay type in all cases: in vivo
[1] = system: Septoria tritici (the causal agent of wheat leaf blotch); test: Test B: wheat leaf blotch, preventive spray on wheat seedlings, visual disease rating; settings: for Test B rating (100 = 100% disease control, 0 = no disease control relative to the controls): wheat leaf blotch, preventive spray on wheat seedlings; for Test B rating (% disease control, wheat leaf blotch): 100 = 100% disease control
Summary of the method: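 Wheat seedlings sprayed to run-off with compound suspension (acetone/water with 250 ppm Trem 014; 200 ppm ≈ 800 g/ha, some at 40 ppm), inoculated next day with Septoria tritici spores. 48 h saturated humidity at 24 °C, then 19 days at 20 °C; visual rating, 100 = full control.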

[2] = system: Puccinia recondite f. sp. tritici (the causal agent of wheat leaf rust); test: Test A: wheat leaf rust, preventive spray on wheat seedlings, visual disease rating; settings: for Test A rating (100 = 100% disease control, 0 = no disease control relative to the controls): wheat leaf rust, preventive spray on wheat seedlings; for Test A rating (% disease control, wheat leaf rust): 100 = 100% disease control
Summary of the method: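 Wheat seedlings were sprayed to run-off with compound suspended in acetone/water containing 250 ppm Trem 014 (200 ppm ≈ 800 g/ha; some at 40 ppm). Puccinia recondite spores were inoculated the next day. Plants were held 24 h saturated at 20° C, then 7 days at 20° C, and disease control was rated visually on a 0–100 scale against controls.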

[3] = system: Blumeria graminis f. sp. tritici (also known as Erysiphe graminis f. sp. tritici, the causal agent of wheat powdery mildew); test: Test D: wheat powdery mildew, preventive spray on wheat seedlings, visual disease rating; settings: for Test D rating (100 = 100% disease control, 0 = no disease control relative to the controls): wheat powdery mildew, preventive spray on wheat seedlings; for Test D rating (% disease control, wheat powdery mildew): 100 = 100% disease control
Summary of the method: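 Compound suspended in acetone/water (50/50) with 250 ppm Trem 014 and sprayed to run-off on wheat seedlings (200 ppm ≈ 800 g/ha), then inoculated next day with spore dust. Disease rated visually after 8 days at 20 °C as % control relative to untreated plants (0-100).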

[4] = system: Botrytis cinerea (the causal agent of tomato Botrytis); test: Test C: tomato Botrytis, preventive spray on tomato seedlings, visual disease rating; settings: for Test C rating (100 = 100% disease control, 0 = no disease control relative to the controls): tomato Botrytis, preventive spray on tomato seedlings; for Test C rating (% disease control, tomato Botrytis): 100 = 100% disease control
Summary of the method: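 Test suspension (acetone/water with 250 ppm Trem 014; 200 ppm equivalent to 800 g/ha) sprayed to run-off on tomato seedlings; B. cinerea spores inoculated next day. After 48 h saturated humidity at 20° C then 3 days at 24° C, disease rated visually as % control relative to untreated controls (0–100).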

[5] = asterisk: 40 ppm test suspension
[6] = no asterisk (standard test suspension concentration, not 40 ppm)
[7] = no asterisk: standard test suspension concentration, 0 = no control relative to controls
[8] = asterisk: 40 ppm test suspension, 0 = no control

| SMILES | Test B rating (100 = 100% disease control, 0 = no disease control relative to the controls) [1, 6] | Test A rating (100 = 100% disease control, 0 = no disease control relative to the controls) [2, 6] | Test D rating (100 = 100% disease control, 0 = no disease control relative to the controls) [3, 6] | Test C rating (100 = 100% disease control, 0 = no disease control relative to the controls) [4, 6] | other results |
| --- | --- | --- | --- | --- | --- |
| COc1ccc(C(O)c2c(Br)nc(Br)n2-c2ccc(F)cc2Cl)c(Cl)c1 (stereo not shown) [compound 355] | – | – | – | – | Test B rating (100 = 100% disease control, 0 = no disease control relative to the controls) [1, 5]: 100* %; Test A rating (100 = 100% disease control, 0 = no disease control relative to the controls) [2, 5]: 100* %; Test D rating (100 = 100% disease control, 0 = no disease control relative to the controls) [3, 5]: 97* %; Test C rating (100 = 100% disease control, 0 = no disease control relative to the controls) [4, 5]: 100* % |
| COc1ccc(C(O)c2c(Cl)ncn2-c2ccc(F)cc2Cl)c(Cl)c1 (stereo not shown) [compound 356] | – | – | – | – | Test B rating (100 = 100% disease control, 0 = no disease control relative to the controls) [1, 5]: 19* %; Test A rating (100 = 100% disease control, 0 = no disease control relative to the controls) [2, 5]: 95* %; Test D rating (100 = 100% disease control, 0 = no disease control relative to the controls) [3, 5]: 0* %; Test C rating (100 = 100% disease control, 0 = no disease control relative to the controls) [4, 5]: 0* % |
| COc1ccc(C(O)c2c(Cl)nc(Br)n2-c2ccc(F)cc2Cl)c(Cl)c1 (stereo not shown) [compound 357] | – | – | – | – | Test B rating (100 = 100% disease control, 0 = no disease control relative to the controls) [1, 5]: 100* %; Test A rating (100 = 100% disease control, 0 = no disease control relative to the controls) [2, 5]: 100* %; Test D rating (100 = 100% disease control, 0 = no disease control relative to the controls) [3, 5]: 98* %; Test C rating (100 = 100% disease control, 0 = no disease control relative to the controls) [4, 5]: 99* % |
| COc1ccc(C(O)c2c(Br)nc(Cl)n2-c2ccc(F)cc2Cl)c(Cl)c1 (stereo not shown) [compound 358] | – | – | – | – | Test B rating (100 = 100% disease control, 0 = no disease control relative to the controls) [1, 5]: 100* %; Test A rating (100 = 100% disease control, 0 = no disease control relative to the controls) [2, 5]: 100* %; Test D rating (100 = 100% disease control, 0 = no disease control relative to the controls) [3, 5]: 99* %; Test C rating (100 = 100% disease control, 0 = no disease control relative to the controls) [4, 5]: 100* % |
| Cc1ncc(C(O)c2c(F)cc(Cl)cc2F)n1-c1ccc(F)cc1Cl (stereo not shown) [compound 359] | 0% | 68% | 0% | 0% | – |
| Cc1ncc(C(O)c2ccc(F)cc2Cl)n1-c1ccc(F)cc1F (stereo not shown) [compound 360] | 93% | 99% | 0% | 67% | – |
| Cc1ncc(C(O)c2c(F)cc(F)cc2F)n1-c1ccc(Cl)cc1Cl (stereo not shown) [compound 361] | 15% | 95% | 0% | 9% | – |
| Cc1nc(Br)c(C(O)c2c(F)cc(Cl)cc2F)n1-c1ccc(F)cc1Cl (stereo not shown) [compound 362] | 85% | 99% | 0% | 0% | – |
| COc1cc(F)c(C(O)c2cnc(C)n2-c2ccc(F)cc2Cl)c(F)c1 (stereo not shown) [compound 363] | 74% | 98% | 0% | 9% | – |
| COc1cc(F)c(C(O)c2c(Br)nc(C)n2-c2ccc(F)cc2Cl)c(F)c1 (stereo not shown) [compound 364] | 100% | 100% | 95% | 100% | – |
| Cc1nc(Br)c(C(O)c2c(F)cc(F)cc2F)n1-c1ccc(Cl)cc1Cl (stereo not shown) [compound 365] | 100% | 100% | 64% | 100% | – |
| Cc1cc(F)ccc1C(O)c1c(Cl)nc(C)n1-c1c(Cl)cccc1Cl (stereo not shown) [compound 366] | 100% | 99% | 97% | 100% | – |
| Cc1cc(F)ccc1C(O)c1c(Br)nc(C)n1-c1c(Cl)cccc1Cl (stereo not shown) [compound 367] | 100% | 98% | 96% | 96% | – |
| Cc1cc(F)ccc1C(O)c1cnc(C)n1-c1c(F)cc(F)cc1Cl (stereo not shown) [compound 368] | 100% | 100% | 0% | 99% | – |
| Cc1ncc(C(O)c2ccc(F)cc2Cl)n1-c1c(F)cc(F)cc1Cl (stereo not shown) [compound 370] | 100% | 100% | 0% | 100% | – |
| Cc1ncc(C(O)c2ccc(Cl)cc2Cl)n1-c1c(F)cc(F)cc1Cl (stereo not shown) [compound 371] | 100% | 95% | 0% | 58% | – |
| Cc1ncc(C(O)c2ccc(Cl)cc2)n1-c1ccc(F)cc1F (stereo not shown) [compound 378] | – | – | – | – | Test B rating (% disease control, wheat leaf blotch) [1, 7]: 74%; Test A rating (% disease control, wheat leaf rust) [2, 7]: 37%; Test D rating (% disease control, wheat powdery mildew) [3, 7]: 0%; Test C rating (% disease control, tomato Botrytis) [4, 7]: 0% |
| Cc1cc(F)ccc1C(O)c1c(Br)nc(C)n1-c1ccc(F)cc1F (stereo not shown) [compound 379] | – | – | – | – | Test B rating (% disease control, wheat leaf blotch) [1, 7]: 100%; Test A rating (% disease control, wheat leaf rust) [2, 7]: 100%; Test D rating (% disease control, wheat powdery mildew) [3, 7]: 79%; Test C rating (% disease control, tomato Botrytis) [4, 7]: 99% |
| Cc1nc(Br)c(C(O)c2ccc(Cl)cc2)n1-c1ccc(F)cc1F (stereo not shown) [compound 380] | – | – | – | – | Test B rating (% disease control, wheat leaf blotch) [1, 7]: 100%; Test A rating (% disease control, wheat leaf rust) [2, 7]: 98%; Test D rating (% disease control, wheat powdery mildew) [3, 7]: 0%; Test C rating (% disease control, tomato Botrytis) [4, 7]: 100% |
| Cc1ncc(C(O)c2ccc(F)cc2F)n1-c1ccc(F)cc1F (stereo not shown) [compound 381] | – | – | – | – | Test B rating (% disease control, wheat leaf blotch) [1, 7]: 97%; Test A rating (% disease control, wheat leaf rust) [2, 7]: 88%; Test D rating (% disease control, wheat powdery mildew) [3, 7]: 0%; Test C rating (% disease control, tomato Botrytis) [4, 7]: 0% |
| Cc1nc(Br)c(C(O)c2ccc(F)cc2F)n1-c1ccc(F)cc1F (stereo not shown) [compound 382] | – | – | – | – | Test B rating (% disease control, wheat leaf blotch) [1, 7]: 100%; Test A rating (% disease control, wheat leaf rust) [2, 7]: 100%; Test D rating (% disease control, wheat powdery mildew) [3, 7]: 0%; Test C rating (% disease control, tomato Botrytis) [4, 7]: 99% |
| Cc1nc(Cl)c(C(O)c2ccc(F)cc2Br)n1-c1c(F)cccc1F (stereo not shown) [compound 383] | – | – | – | – | Test B rating (% disease control, wheat leaf blotch) [1, 8]: 100* %; Test A rating (% disease control, wheat leaf rust) [2, 8]: 100* %; Test D rating (% disease control, wheat powdery mildew) [3, 8]: 92* %; Test C rating (% disease control, tomato Botrytis) [4, 8]: 99* % |
